Laboratory results: patent US12022844B2, “Nutritional composition, food/drink composition using nutritional composition, and modified milk powder using nutritional composition” (priority 2018, dated 2024)

How the values were obtained:
[1] = tested on: Bifidobacterium bifidum NITE BP-02429; experiment: Single bacterial culturing with HMO as sugar source, OD650; type: cell-based; details: 8 h
Protocol: (§1) A10% solution of glucose (manufactured by Nakarai Tesque Inc.), and 2′-FL ((≥95%) Funakoshi, available from sigma), and LNnT (manufactured by ELICITYL) as examples of HMOs was prepared with ion exchanged water, and was subjected to sterile filtration using Millex-GV (SLGV033RS).
(§2) Lactobacilli MRS Broth (BD) (0.05% L-Cysteine Hydrochloride for Bacteria of the genus Bifidobacterium) was added to strains of Table 1 below (bacteria belonging to Bifidobacterium bifidum) and Table 2 below. After a sterilization treatment, 3% of the bacterial solution was inoculated, and anaerobically cultured (pre-pre cultured) at 37° C. for 16 h.
(§3) The following day, 1% glucose was added to a modified BL agar medium (“Studies on Bifidobacteria” by Tomotari Mitsuoka, p. 306, Japan Bifidus Foundation, issued in 1994) noted in Table 3, for preparation. After a sterilization treatment, 3% of the pre-pre cultured bacterial solution was inoculated, and anaerobically pre-cultured (pre-cultured) at 37° C. for 12 h.
(§4) The pre-cultured bacterial solution was collected and washed once with a sterile physiological saline solution. Then, mass-up was performed to an equal volume with the modified BL agar medium (“Studies on Bifidobacteria” by Tomotari Mitsuoka, p. 306, Japan Bifidus Foundation, issued in 1994) noted in Table 3 to prepare a suspended bacterial solution.
The modified BL agar medium (“Studies on Bifidobacteria” by Tomotari Mitsuoka, p. 306, Japan Bifidus Foundation, issued in 1994) noted in Table 3 was prepared at a capacity of 60%, and was subjected to an autoclave sterilization treatment. Then, 40% of each sugar solution prepared in (1) was aseptically added so as to prepare a medium with a sugar concentration of 4%. […]
OD650 was measured from each well in the plates in the above (4) and the above (5) before (0 h) culturing and after (8 h) culturing, by MICROPLATE READER SH-9000 (manufactured by CORONA ELECTRIC). […] After the DNA extraction, the number of proliferating bacteria of Bifidobacteria/lactobacilli was analyzed by using the bacterial species-specific primer noted in Table 4, by a quantitative PCR method (see “Structural analysis of intestinal flora”—analysis of bacterial flora in human feces using quantitative PCR—by Kouichi Watanabe, Enterobacteriological journal, 20:35-42, 2006).
Regarding bacteria belonging to Bifidobacterium bifidum in Table 1, each strain was cultured as a single bacterium by 2′-FL or LNnT (HMOs) as a sugar source, and OD650 was measured. […]
Regarding strains in Table 2, each strain was cultured as a single bacterium by 2′-FL or LNnT (HMOs) as a sugar source, and OD650 was measured. […]

[2] = tested on: Lactobacillus paracasei ATCC25302; experiment: as above; type: cell-based; details: ATCC 25302^T, sugar source 2%, 8 h
Protocol: as §1, §2, §3, §4
(§5) The modified BL agar medium (“Studies on Bifidobacteria” by Tomotari Mitsuoka, p. 306, Japan Bifidus Foundation, issued in 1994) noted in Table 3 was prepared at a capacity of 60%, and was subjected to an autoclave sterilization treatment. Then, 40% of each sugar solution prepared in (1) was aseptically added so as to prepare a medium with a sugar concentration of 4%.
The medium prepared in the above (3) was dispensed at a capacity that is half the capacity for culturing in a 96-well plate, and the bacterial solution prepared in the above (2) was dispensed at a remaining half capacity such that the bacterial solution had 6%. Then, a final sugar concentration was set to 2%. The plate into which the bacterial solution was dispensed was anaerobically cultured at 37° C. for 8 h.
(§6) OD650 was measured from each well in the plates in the above (4) and the above (5) before (0 h) culturing and after (8 h) culturing, by MICROPLATE READER SH-9000 (manufactured by CORONA ELECTRIC). After turbidity measurement, microbial cells were collected, and DNA extraction was performed. After the DNA extraction, the number of proliferating bacteria of Bifidobacteria/lactobacilli was analyzed by using the bacterial species-specific primer noted in Table 4, by a quantitative PCR method (see “Structural analysis of intestinal flora”—analysis of bacterial flora in human feces using quantitative PCR—by Kouichi Watanabe, Enterobacteriological journal, 20:35-42, 2006).
Regarding strains in Table 2, each strain was cultured as a single bacterium by 2′-FL or LNnT (HMOs) as a sugar source, and OD650 was measured. The results for 2′-FL are noted in Table 6 below, and the results for LNnT are noted in Table 7 below.

[3] = tested on: Bifidobacterium longum subspecies longum BB536; experiment: Mix-culturing with Bifidobacterium bifidum by HMO as sugar source, quantitative PCR; type: cell-based; details: for Proliferation rate (number of bacteria after mix-culturing for 8 h/number of bacteria after single bacterial culturing): BB536 mix-cultured with Bifidobacterium bifidum (NITE BP-02429), sugar source 2%, Table 8; for Proliferation rate of BB536 (mix-cultured bacteria after 8 h/single bacterial culturing 8 h): Table 9; for proliferation of BB536 through mix-culturing with bacteria belonging to Bifidobacterium bifidum: summary of Table 9
Protocol: as §1, §2, §3, §4, §5
(§7) The medium prepared in the above (3) was dispensed at a capacity that is half the capacity for aseptic culturing in a 96-well plate, and each of the bacterial solutions of strains of bacteria belonging to Bifidobacterium bifidum in Table 1 and probiotics having a low ability to assimilate human milk oligosaccharides in Table 2, which was prepared in the above (2), was dispensed at a remaining […] capacity into the medium prepared in the above (3) such that the bacterial solution had 12%. Then, a final sugar concentration was set to 2%. The plate into which the bacterial solution was dispensed was anaerobically cultured at 37° C. for 8 h.
as §6
(§8) It was decided to culture Bifidobacterium bifidum (NITE BP-02429) in which availability of 2′-FL or LNnT was found as described above, in combination with strains in Table 2, which cannot use 2′-FL or LNnT. Bifidobacterium bifidum (NITE BP-02429) and the strains in Table 2, which cannot use 2′-FL or LNnT, were mix-cultured by 2′-FL or LNnT as a sugar source, and after culturing for 8 h, the proliferation rate of the number of bacteria of each strain (proliferation rate=the number of bacteria after mix-culturing for 8 h/the number of bacteria after single bacterial culturing) was measured by a quantitative PCR method using each strain-specific oligonucleotide primer noted in Table 4, for the strain in Table 2.
Seven strains of Bifidobacterium bifidum in Table 1 and Bifidobacterium longum subspecies longum BB536 which cannot use 2′-FL or LNnT were mix-cultured by 2′-FL or LNnT as a sugar source. […]

[4] = tested on: Bifidobacterium pseudolongum ATCC25526; experiment: as above; type: cell-based; details: ATCC 25526^T mix-cultured with Bifidobacterium bifidum (NITE BP-02429), sugar source 2%, Table 8
Protocol: as §1, §2, §3, §4, §5, §7, §6, §8

[5] = tested on: Lactobacillus rhamnosus ATCC7469; experiment: as above; type: cell-based; details: ATCC 7469^T mix-cultured with Bifidobacterium bifidum (NITE BP-02429), sugar source 2%, Table 8
Protocol: as §1, §2, §3, §4, §5, §7, §6, §8

[6] = tested on: Bifidobacterium peseudocatenulatum ATCC27919; experiment: as above; type: cell-based, Bifidobacterium pseudocatenulatum; details: ATCC 27919^T mix-cultured with Bifidobacterium bifidum (NITE BP-02429), sugar source 2%, Table 8
Protocol: as §1
as §2, with “h. […]” for “h.”
OD650 was measured from each well in the plates in the above (4) and the above (5) before (0 h) culturing and after (8 h) culturing, by MICROPLATE READER SH-9000 (manufactured by CORONA ELECTRIC). […] After the DNA extraction, the number of proliferating bacteria of Bifidobacteria/lactobacilli was analyzed by using the bacterial species-specific primer noted in Table 4, by a quantitative PCR method (see “Structural analysis of intestinal flora”—analysis of bacterial flora in human feces using quantitative PCR—by Kouichi Watanabe, Enterobacteriological journal, 20:35-42, 2006). […]

[7] = tested on: Lactobacillus paracasei ATCC 25302; experiment: as above; type: cell-based; details: for Proliferation rate (number of bacteria after mix-culturing for 8 h/number of bacteria after single bacterial culturing): ATCC 25302^7 mix-cultured with Bifidobacterium bifidum (NITE BP-02429), sugar source 2%, Table 8; for Proliferation ratio of Lactobacillus paracasei ATCC 25302^T (mix-cultured bacteria after 8 h/single bacterial culturing 8 h): Table 12; for number of proliferating bacteria of Lactobacillus paracasei ATCC 25302^T in combination with seven strains of Bifidobacterium bifidum compared to single bacterium culture: summary of Table 12
Protocol: as §1, §2, §3, §4, §5, §7, §6, §8
Seven strains of Bifidobacterium bifidum in Table 1 and Lactobacillus paracasei ATCC 25302^T which cannot use 2′-FL or LNnT were mix-cultured by 2′-FL or LNnT as a sugar source. […]

[8] = NITE BP-02429, sugar source 2%, anaerobic 37° C., Table 5
[9] = mix-cultured with Bifidobacterium bifidum ATCC 29521^T
[10] = mix-cultured with Bifidobacterium bifidum NITE BP-1252
[11] = mix-cultured with Bifidobacterium bifidum NITE BP-02429
[12] = mix-cultured with Bifidobacterium bifidum NITE BP-02431
[13] = mix-cultured with Bifidobacterium bifidum NITE BP-02432
[14] = mix-cultured with Bifidobacterium bifidum NITE BP-02433
[15] = mix-cultured with Bifidobacterium bifidum NITE P-02648

| Compound | OD650 increase value [1, 8] | Proliferation rate (number of bacteria after mix-culturing for 8 h/number of bacteria after single bacterial culturing) [3] | Proliferation rate of BB536 (mix-cultured bacteria after 8 h/single bacterial culturing 8 h) [3, 9] | Proliferation rate of BB536 (mix-cultured bacteria after 8 h/single bacterial culturing 8 h) [3, 10] | Proliferation rate of BB536 (mix-cultured bacteria after 8 h/single bacterial culturing 8 h) [3, 11] | Proliferation rate of BB536 (mix-cultured bacteria after 8 h/single bacterial culturing 8 h) [3, 12] | Proliferation rate of BB536 (mix-cultured bacteria after 8 h/single bacterial culturing 8 h) [3, 13] | Proliferation rate of BB536 (mix-cultured bacteria after 8 h/single bacterial culturing 8 h) [3, 14] | Proliferation rate of BB536 (mix-cultured bacteria after 8 h/single bacterial culturing 8 h) [3, 15] | proliferation of BB536 through mix-culturing with bacteria belonging to Bifidobacterium bifidum [3] | Proliferation rate (number of bacteria after mix-culturing for 8 h/number of bacteria after single bacterial culturing) [4] | Proliferation rate (number of bacteria after mix-culturing for 8 h/number of bacteria after single bacterial culturing) [5] | Proliferation rate (number of bacteria after mix-culturing for 8 h/number of bacteria after single bacterial culturing) [6] | Proliferation rate (number of bacteria after mix-culturing for 8 h/number of bacteria after single bacterial culturing) [7] | Proliferation ratio of Lactobacillus paracasei ATCC 25302^T (mix-cultured bacteria after 8 h/single bacterial culturing 8 h) [7, 9] | Proliferation ratio of Lactobacillus paracasei ATCC 25302^T (mix-cultured bacteria after 8 h/single bacterial culturing 8 h) [7, 10] | Proliferation ratio of Lactobacillus paracasei ATCC 25302^T (mix-cultured bacteria after 8 h/single bacterial culturing 8 h) [7, 11] | Proliferation ratio of Lactobacillus paracasei ATCC 25302^T (mix-cultured bacteria after 8 h/single bacterial culturing 8 h) [7, 12] | Proliferation ratio of Lactobacillus paracasei ATCC 25302^T (mix-cultured bacteria after 8 h/single bacterial culturing 8 h) [7, 13] | Proliferation ratio of Lactobacillus paracasei ATCC 25302^T (mix-cultured bacteria after 8 h/single bacterial culturing 8 h) [7, 14] | also measured |
| --- | --- | --- | --- | --- | --- | --- | --- | --- | --- | --- | --- | --- | --- | --- | --- | --- | --- | --- | --- | --- | --- |
| 2′-fucosyllactose [2′-FL] | 0.167 | 4.30 | 1.35 | 3.17 | 4.13 | 6.33 | 3.16 | 5.90 | 9.97 | proliferates | 1.24 | 2.69 | 3.08 | 6.92 | 2.28 | 1.98 | 4.21 | 3.25 | 2.01 | 3.23 | OD650 increase value ([1]; NITE BP-02429(PC), sugar source 2%, Table 6): 0.135; OD650 increase value ([2]; Table 6): −0.011; Proliferation ratio of Lactobacillus paracasei ATCC 25302^T (mix-cultured bacteria after 8 h/single bacterial culturing 8 h) [7, 15]: 4.23; number of proliferating bacteria of Lactobacillus paracasei ATCC 25302^T in combination with seven strains of Bifidobacterium bifidum compared to single bacterium culture [7]: promoted |
| CC(=O)N[C@H]1[C@H](O[C@H]2[C@@H](O)[C@@H](CO)O[C@@H](O[C@H]3[C@H](O)[C@@H](O)C(O)O[C@@H]3CO)[C@@H]2O)O[C@H](CO)[C@@H](O[C@@H]2O[C@H](CO)[C@H](O)[C@H](O)[C@H]2O)[C@@H]1O (mixture of isomers) [LNnT, lacto-N-neotetraose] | 0.608 | 2.13 | 1.07 | 1.64 | 3.57 | 3.02 | 1.51 | 3.08 | 4.95 | proliferates | 0.98 | 5.03 | 1.55 | 4.23 | 4.26 | 9.18 | 8.04 | 10.10 | 8.76 | 8.85 | OD650 increase value ([1]; NITE BP-02429 (PC: positive control), sugar source 2%, Table 7): 0.608; OD650 increase value ([2]; Table 7): 0.052; Proliferation ratio of Lactobacillus paracasei ATCC 25302^T (mix-cultured bacteria after 8 h/single bacterial culturing 8 h) [7, 15]: 14.78; number of proliferating bacteria of Lactobacillus paracasei ATCC 25302^T in combination with seven strains of Bifidobacterium bifidum compared to single bacterium culture [7]: promoted |
